# Laboratory results from patent US20090227606A1, “Methods for Preventing or Treating Acute and Chronic Pain” (priority 2006, published 2009).
# “Also recorded” adds a separate entry of the source.
# Assays:
# [1] = tested on: MIP-2 (CXCL2); assay: ELISA of MIP-2 release from cultured astrocytes; type: cell-based, rat; details: seven days, LPS 1 μg/ml; propentofylline 1000 μM; db-cAMP 250 μM
# Method: After approximately 14 days (2 days after subplating into plates, DIV 14) astrocytes had formed a confluent monolayer. […] Phase contrast microscopy was then carried out in order to assess the morphology of cells after the various treatments. Length of astrocyte processes was quantified by measuring all processes in 2-3 phase contrast images/group by an independent observer, blinded to the treatment groups using Image J v1.34s (National Institutes of Health, Bethesda, Md.).
# Standard ELISA was performed for quantitative determination of MCP-1 and MIP-2 protein in cell culture supernatant. Assays were carried out according to the manufacturer's specifications (Biosource, Camarillo, Calif.) using the sandwich enzyme immunoassay procedure. Optical density at 450 nm was obtained using the MRX Revelations program (Dynex Technologies, Chantilly, Va.) and relative protein concentrations were determined by comparing samples to the standard curve generated.
# [2] = tested on: L5 spinal nerve transection; details: systemically or intrathecally administered; Sweitzer et al. 2001; cited from earlier work
# [3] = tested on: GLT-1; assay: eGFP-GLT-1-positive puncta in mouse spinal cord dorsal horn; type: in vivo
# Method: With these in vivo data collected, further experiments were performed in the transgenic mice to more clearly define the effects of propentofylline treatment on GLT-1 and GLAST in the spinal cord. As discussed above, following in vivo testing, mice were transcardially perfused and tissue was fixed with paraformaldehyde. Lumbar spinal cord sections were identified and post-fixed in paraformaldehyde. After one week in sucrose to prevent freeze fracture, spinal cord segments were frozen in dry ice, mounted and prepared with cryostat sectioning. Sections were then subjected to immunohistochemical analysis. […] In order to quantitate the relative number of eGFP (marker for GLT-1) or DsRed (marker for GLAST) puncta in each spinal cord dorsal horn, images using a fluorescence microscope were taken with a Q-Fire cooled camera (397 ms exposure). […] An observer blind to the treatment groups was used to count the relative number of GLT-1 or GLAST positive puncta in the ipsilateral (injured) dorsal horn versus the contralateral (non-injured) dorsal horn. […] For both reporters (GLT-1, green color; GLAST, red color), diffuse, cytoplasmic and punctate, perinuclear expression was observed that overlapped with GFAP (blue color) in some, but not all cases.
# Transgenic mice on a C57B1/6 background were created according to the methods previously described (Regan et al. 2006. J. Neuroscience, in press). Briefly, in order to determine where in the central nervous system GLAST is expressed, transgenic mice were created using a bacterial artificial chromosome containing the GLAST gene plus 18 kb of DNA upstream of the first exon and 60 kb downstream of the last exon. DsRed cDNA was inserted into the first exon to allow expression of DsRed instead of GLAST when the promoter is active. […]
# As described previously with rats, mice were transcardially perfused with 0.1 M PBS (phosphate-buffered saline), pH 7.4, followed by 4%-paraformaldehyde in PBS on day 12 post-L5 spinal nerve transection. […] The sections were examined with a fluorescence microscope, and images were captured with a Q-Fire cooled camera. […]
# [4] = tested on: GLAST; assay: Immunocytochemistry of cultured astrocytes, GLAST staining; type: cell-based, rat; details: treated astrocytes
# Method: Primary astrocyte-enriched cultures were plated onto sterile 18 mm glass coverslips. After three washes in PBS, cells were permeabilized in 5% glacial acetic acid/95% ethanol (acid-alcohol) for 10 minutes. After washing, cells were incubated in a 1% normal goat serum for 30 minutes and then overnight at 4° C. in primary mouse anti-GFAP (1:500), rabbit anti-GLT-1 (1:500) or guinea pig anti-GLAST (1:2000). The following day, cells were washed and then incubated for 2 hours at room temperature with goat anti-mouse Alexa Fluor™-555 (Invitrogen Corporation, Carlsbad, Calif.) goat anti-guinea pig Alexa Fluor™-488 (Invitrogen Corporation, Carlsbad, Calif.) or goat anti-rabbit Alexa Fluor™-488 (Invitrogen Corporation, Carlsbad, Calif.; all at 1:250). Finally, cells were post-fixed in acid-alcohol and mounted with Vectashield (Vector Labs, Burlingame, Calif.) containing 4′,6-diamidino-2-phenylindole dihydrochloride hydrate (DAPI, Sigma Chemical Co., St Louis, Mo.), in order to visualize cell nuclei. The sections were examined with a fluorescence microscope, and images were captured with a Q-Fire cooled camera (Olympus, Melville, N.Y.). Confocal microscopy was also performed using a Zeiss LSM 510 Meta confocal microscope (Carl Zeiss AG, Oberkochen, Germany). Merged color images were processed using Adobe Photoshop 7.0 (Adobe Systems, San Jose, Calif.).
# [5] = L5/propentofylline group, day 12
structure (smiles),measurement,setting,value
CCCn1cnc2c1c(=O)n(CCCCC(C)=O)c(=O)n2C [propentofylline],LPS-induced MIP-2 (CXCL2) release,[1],reversed by co-treatment with propentofylline; also recorded: significantly attenuated
same,mechanical allodynia induced by L5 spinal nerve transection,[2],exhibits anti-allodynic properties; also recorded: attenuated mechanical allodynia
same,"eGFP-GLT-1-positive puncta in injured mice, in words",[3]; [5],reversed with propentofylline administration; also recorded: restored levels of eGFP-GLT-1-positive puncta to that of the contralateral side
same,ipsilateral versus contralateral ratio of eGFP-GLT-1-positive puncta,[3]; [5],1
same,eGFP-GLT-1-positive puncta in sham mice,[3]; sham/propentofylline group,did not lead to further increases in GLT-1 above normal expression levels
same,GLAST staining,[4],slightly increased GLAST staining
